In publication PMC6963822, “Phenolic Compounds from the Aerial Parts of Blepharis linariifolia Pers. and Their Free Radical Scavenging and Enzyme Inhibitory Activities” (Medicines, 2019):

Experiments:
[1] = DPPH free radical scavenging activity; conditions: 20 min, room temperature, absorbance at 520 nm, triplicate
Description: The antioxidant potential was determined using the 1,1- diphenyl-2-picrylhydrazyl (DPPH) radical scavenging method with minor modifications. In a 96-well plate, 25 μL of compound solution of different concentrations were added, followed by the addition of 75 μL of 50% EtOH and 50 μL MES buffer (200 mM, pH = 6.0). Finally, 50 μL of freshly prepared DPPH solution in ethanol (800 μM) were added, and the assay plate was incubated for 20 min in the dark at room temperature. The antioxidant activity corresponding to scavenging of DPPH radicals was measured at 520 nm with UV spectrophotometer using the following formula: Radical scavenging activity (%) = 100 × (A − B)/A, where A is the control absorbance of DPPH radicals without samples and B is the absorbance after reacting with samples. Trolox was used as the positive control.
(§1) All the experiments were performed in triplicate. The data was analyzed using Microsoft Office Excel (2007) and results for DPPH free radical and in vitro enzyme inhibitory activities were expressed as IC50 value (μM).

[2] = target: T1, porcine pancreatic lipase (Sus scrofa, UniProt P00591); experiment: Pancreatic lipase inhibitory activity; type: biochemical; conditions: substrate 4-methylumbelliferyl oleate, pH 7.4, triplicate; for IC50: read-out: Enzyme Inhibitory Activities Lipase IC50
T1 construct: purchased Sigma Aldrich, Co. (Tokyo, Japan)
T1 sequence (P00591 1-450): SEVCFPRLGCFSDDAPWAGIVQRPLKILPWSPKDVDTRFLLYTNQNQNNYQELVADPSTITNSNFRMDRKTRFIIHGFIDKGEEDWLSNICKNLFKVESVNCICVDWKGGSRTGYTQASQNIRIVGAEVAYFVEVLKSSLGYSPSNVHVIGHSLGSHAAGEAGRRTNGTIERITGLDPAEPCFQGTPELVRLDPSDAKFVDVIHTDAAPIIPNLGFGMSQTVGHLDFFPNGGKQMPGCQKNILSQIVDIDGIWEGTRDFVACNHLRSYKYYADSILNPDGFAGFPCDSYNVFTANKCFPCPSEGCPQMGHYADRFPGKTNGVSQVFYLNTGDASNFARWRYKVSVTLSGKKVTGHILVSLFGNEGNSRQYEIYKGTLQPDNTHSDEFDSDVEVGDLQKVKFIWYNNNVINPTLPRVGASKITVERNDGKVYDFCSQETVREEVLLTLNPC
Text: (§2) 1,1-Diphenyl-2-picrylhydrazyl (DPPH) and the enzymes α-glucosidase (from Saccharomyces cerevisiae), porcine pancreatic lipase, and mushroom tyrosinase were purchased from Sigma Aldrich, Co. (Tokyo, Japan). […] Cetilistat was obtained from Combi-Blocks, San Diego, USA, and arbutin was purchased from Nacalai Tesque, Inc. (Kyoto, Japan). 2-Morpholinoethanesulfonic acid monohydrate (MES) was purchased from Dojindo Chemical Research (Kumamoto, Japan).
Evaluation of pancreatic lipase inhibitory activity was performed by measuring the release of 4-methylumbelliferone (4MUF) from the substrate 4-methylumbelliferyl oleate (4MUFO) as reported by Bitou et al. with slight modifications. Briefly, 50 μL of the test sample and 50 μL of pancreatic lipase (100 μg/mL in phosphate buffer of 0.2 M, pH 7.4) were mixed and incubated at room temperature for 10 min. Afterward, 100 μL of the substrate 4MUFO (0.5 mM) was added. After 10 min, the fluorescence from the release of 4MUF was measured using a microplate reader with excitation and emission wavelengths of 355 and 460 nm, respectively. Cetilistat was used as the positive control. The percentage of pancreatic lipase inhibitory activity was calculated using the following equation: Inhibition (%) = (1 − (As/Ac) × 100), where As and Ac are the absorbance of sample and control, respectively.
as §1

α-glucosidase [3] = experiment: α-Glucosidase inhibitory activity; type: biochemical, Saccharomyces cerevisiae; conditions: substrate p-nitrophenyl-α-D-glucopyranoside, 37 °C, pH 6.8, triplicate; for IC50: read-out: Enzyme Inhibitory Activities α-Glucosidase IC50
Text: as §2
The α-glucosidase inhibitory activity was determined according to the method reported by Jabeen et al. with slight modifications. In 96-well plate, 60 μL of 0.2 M phosphate buffer (pH = 6.8), 10 μL of the test sample (final concentration range of 100 to 1.56 μg/mL), and 10 μL of α-glucosidase solution (prepared in phosphate buffer to obtain 1 U/mL) were added. The mixture was incubated at 37 °C for 5 min and 20 μL of 4 mM p-nitrophenyl-α-D-glucopyranoside substrate were added. After 12 min of incubation at 37 °C, the released p-nitrophenol was measured at 405 nm using a spectrophotometer. The percentage inhibition of α-glucosidase activity was calculated using the equation: Inhibition (%) = (1 − (Aa − Ab)/(Ac − Ad)) × 100, in which Aa is the absorbance with test sample and enzyme, Ab is the absorbance with test samples but without enzyme, Ac is the absorbance with enzyme but without test sample, and Ad is the absorbance without test samples and enzymes.
as §1

mushroom tyrosinase [4] = experiment: Tyrosinase inhibitory activity; type: biochemical, Agaricus bisporus; conditions: substrate L-tyrosine, 25 °C, pH 6.8, triplicate; read-out: Enzyme Inhibitory Activities Tyrosinase IC50
Text: Antioxidants are substances that scavenge free radicals and related reactive species. Free radicals amend vital body composition such as lipids and proteins, resulting in serious conditions such as inflammatory conditions, atherosclerosis, and cancerous diseases. Therefore, dietary antioxidants are undertaken for enhancing health conditions for people under precarious sanitary conditions or to prevent serious and chronic illnesses such as neurodegenerative diseases, diabetes, and hyperlipidemia. Diabetes mellitus (DM) is a metabolic disorder characterized by high blood glucose, which is likely to cause serious side effects such as retinopathy and cataracts. […] Obesity is another example of a metabolic disorder associated with several co-morbidities, with an increasing prevalence every year. Excessive lipid accumulation could be one of the causative factors for type II diabetes, as the accumulation of lipid in the pancreas causes dysfunction of insulin-producing pancreatic β-cells. […] Tyrosinase is a key enzyme in the process of melanin synthesis. It has been isolated and identified from different sources. Among them, mushroom tyrosinase, from Agaricus bisporus, is a major source and is widely used due to its high similarity and homology to human tyrosinase. Despite the important protective role of melanin against UV-sunlight radiation, excess accumulation of this pigment results in harmful skin disorders and severe cases may cause skin cancer. […] (Tokyo, Japan). […] obtained from Combi-Blocks, San Diego, USA, and arbutin was purchased from Nacalai Tesque, Inc. (Kyoto, Japan). 2-Morpholinoethanesulfonic acid monohydrate (MES) was purchased from Dojindo Chemical Research (Kumamoto, Japan). The tyrosinase inhibitory activity was evaluated using the method reported by […] et al., with slight modifications. […] The mixture was incubated at 25 °C for 10 min. Finally, 20 μL of the substrate L-tyrosine (2 mM) were added, and the absorbance was measured at 476 nm. […] Arbutin was used as the positive control. […] All the experiments were performed in triplicate. The data was analyzed using Microsoft Office Excel (2007) and results for DPPH free radical and in vitro enzyme inhibitory activities were expressed as IC50 value (μM).

α-glucosidase [5] = system: α-glucosidase; set-up: method as in PMID 27581205; conditions: cited from earlier work
mushroom tyrosinase [6] = conditions: cited from earlier work

Row | Structure (SMILES) | IC50 [1] | Enzyme Inhibitory Activities Lipase IC50 [2] | IC50 [2] | IC50 (α-glucosidase [3]) | IC50 (mushroom tyrosinase [4]) | mode of α-glucosidase inhibition (α-glucosidase [5]) | Enzyme Inhibitory Activities α-Glucosidase IC50 (α-glucosidase [3]) | inhibitory activity for mushroom tyrosinase (mushroom tyrosinase [6]) | tyrosinase inhibitory activity (mushroom tyrosinase [6])
1 | Cc1c(C)c2c(c(C)c1O)CCC(C)(C(=O)O)O2 (centres unmarked) [Trolox, 6-Hydroxy-2,5,7,8-tetramethylchroman-2-carboxylic acid, reference compound] | 39.07 ± 0.31 µM | – | – | – | – | – | – | – | –
2 | O=c1cc(-c2ccc(O)cc2)oc2cc(O)cc(O)c12 [Apigenin (3), apigenin] | 386.3 ± 3.42 µM | active | 12.5 ± 2.04 µM | 34.7 ± 1.78 µM | 23.1 ± 1.83 µM | reversibly inhibit α-glucosidase in a noncompetitive manner | – | – | –
3 | OC[C@H]1O[C@@H](Oc2ccc(O)cc2)[C@H](O)[C@@H](O)[C@@H]1O [Arbutin, arbutin, reference compound] | – | – | – | – | 436 ± 3.71 µM | – | – | – | –
4 | C[C@@H]1O[C@@H](O[C@@H]2[C@@H](O)[C@H](OCCc3ccc(O)c(O)c3)O[C@H](CO)[C@H]2OC(=O)/C=C/c2ccc(O)c(O)c2)[C@H](O)[C@H](O)[C@H]1O [Verbascoside (1), verbascoside] | 22.03 ± 0.04 µM | inactive | – | – | 97.4 ± 2.48 µM | – | neither showed inhibitory activities | – | –
5 | O=C(/C=C/c1ccc(O)cc1)OC[C@H]1O[C@@H](Oc2cc(O)c3c(c2)OC(c2ccc(O)cc2)CC3=O)[C@H](O)[C@@H](O)[C@@H]1O (some centres unmarked) [6″-O-p-Coumaroylprunin (4), 6″-O-p-coumaroylprunin] | 186.2 ± 1.19 µM | active | 2.25 ± 0.17 µM | 46.3 ± 2.92 µM | 136.1 ± 0.78 µM | – | – | – | –
6 | COc1cc(C(=O)O)ccc1O [Vanillic acid (2), vanillic acid] | 217 ± 3.01 µM | inactive | – | – | – | – | neither showed inhibitory activities | did not show any inhibitory activity | weak
7 | CCCCCCCCCCCCCCCCOc1nc2ccc(C)cc2c(=O)o1 [Cetilistat, reference compound] | – | – | 18.4 ± 1.71 µM | – | – | – | – | – | –
